Test results as given in patent US6664249B1, “Bicyclic vasopressin agonists” (Ferring BV, priority 1999, dated 2003).

System: Brattleboro rat
Experiment: urine output in Brattleboro rats (model of vasopressin deficiency)
Type: in vivo
Conditions: 1 mg/kg p.o. in methylcellulose, vs control animals
Procedure: The Brattleboro rat is a recognised model for vasopressin deficiency (for a review see F D Grant, “Genetic models of vasopressin deficiency”, Exp. Physiol. 85, 203S-209S, 2000). […] Compounds of the invention were administered to Brattleboro rats (0.1-10 mg/kg p.o. in methylcellulose. Urine was collected hourly and volumes were compared with control animals. Animals had free access to food and water throughout the experiment. Representative results are given in the Table. Results for Desmopressin are given for comparison.

SMILES | % inhibition of urine output (at 1 hour)
CCOC(=O)CNC(=O)NCc1ccc(C(=O)N2CCCCc3ccccc32)cc1C [Example 5, 1-(4-[N-(2-Ethoxy-2-oxoethylcarbamoyl)aminomethyl]-3-methylbenzoyl)-2,3,4,5-tetrahydro-1H-1-benzazepine] | 74%
Cc1cc(C(=O)N2CCCCc3ccccc32)ccc1CNC(=O)NCC(=O)O [Example 6, 1-(4-[N-(Carboxymethylcarbamoyl)aminomethyl]-3-methylbenzoyl)-2,3,4,5-tetrahydro-1H-1-benzazepine] | 38%
Cc1cc(C(=O)N2CCCCc3ccccc32)ccc1CNC(=O)NCC(=O)N(C)C [Example 8, 1-(4-[N-(2-Dimethylamino-2-oxoethylcarbamoyl)aminomethyl]-3-methylbenzoyl)-2,3,4,5-tetrahydro-1H-1-benzazepine] | 45-82%
Cc1cc(C(=O)N2CCCCc3ccccc32)ccc1CNC(=O)NCC(=O)N1CCCCC1 [Example 25, 1-(3-methyl-4-[N-(2-(1-piperidino)-2-oxoethylcarbamoyl)aminomethyl]benzoyl)-2,3,4,5-tetrahydro-1H-1-benzazepine] | 58%
